Experimental data reported in patent US11524951B2, “2-(2,4,5-substituted-anilino)pyrimidine compounds” (AstraZeneca AB, priority 2011, dated 2022).

Tests used:
Assay type in all cases: cell-based
[1] = biological target: T1, Exon19 deletion EGFR (Homo sapiens, UniProt P00533, DEL746-750); test: Exon19 deletion EGFR (activating single mutant) cellular phosphorylation assay; details: PC9 human lung cells (Exon 19 deletion EGFR); endogenous p-EGFR in cell lysates by ELISA; 2 h with compound; read-out: Assay 1 (IC50)
T1 construct: Assays to measure cellular phosphorylation of endogenous p-EGFR in cell lysates; endogenous in cells; host or cells: PC9 (human lung cell line)
Protocol: Assay 1: Exon19 Deletion EGFR (Activating Single Mutant) Cellular Phosphorylation Assay
The human lung cell line PC9 (Exon 19 deletion EGFR) were obtained from the American type Culture Collection. […] Cells were grown in a humidified incubator at 37° C. with 5% CO2. Assays to measure cellular phosphorylation of endogenous p-EGFR in cell lysates were carried out according to the protocol described in the R&D Systems DuoSet IC Human Phospho-EGF R ELISA (R&D Systems catalogue number #DYC1095). 40 μL of cells were seeded (10000 cells/well) in growth medium in Corning black, clear-bottomed 384-well plates and incubated at 37° C. with 5% CO2 overnight. […] Plates were incubated for a further 2 h, then following aspiration of medium, 40 μL 1× lysis buffer was added to each well. Greiner black high bind 384-well plates were coated with capture antibody and then blocked with 3% BSA. Following removal of block, […], of lysate were transferred to the Greiner black high bind 384-well plates and incubated for 2 hours. Following aspiration and washing of the plates with PBS, 20 μL of detection antibody were added and incubated for 2 hours. […] The data obtained with each compound was exported into a suitable software package (such as Origin) to perform curve fitting analysis.

[2] = biological target: T2, L858R/T790M EGFR (Homo sapiens, UniProt P00533, L858R/T790M); test: L858R/T790M EGFR (double mutant) cellular phosphorylation assay; details: NCI-H1975 human lung cells; endogenous p-EGFR in cell lysates by ELISA; 2 h with compound
T2 construct: Assays to measure cellular phosphorylation of endogenous p-EGFR in cell lysates; endogenous in cells; host or cells: NCI-H1975 (human lung cell line)
Protocol: Assay 2: L858R/T790M EGFR (Double Mutant) Cellular Phosphorylation Assay
The human lung cell lines NCI-H1975 were obtained from the American type Culture Collection. […] Cells were grown in a humidified incubator at 37° C. with 5% CO2.
Assays to measure cellular phosphorylation of endogenous p-EGFR in cell lysates were carried out according to the protocol described in the R&D Systems DuoSet IC Human Phospho-EGF R ELISA (R&D Systems catalogue number #DYC1095).
40 μL of cells were seeded (10000 cells/well) in growth medium in Corning black, clear-bottomed 384-well plates and incubated at 37° C. with 5% CO2 overnight. […] Plates were incubated for a further 2 h and following aspiration of medium, 40 μL 1× lysis buffer was added to each well. Greiner black high bind 384-well plates were coated with capture antibody and then blocked with 3% BSA. Following removal of block, 15 μL of lysate were transferred to the Greiner black high bind 384-well plates and incubated for 2 hours. Following aspiration and washing of the plates with PBS, 20 μL of detection antibody were added and incubated for 2 hours. […] 20 μL QuantaBlu stop solution were added to plates and fluorescence read on an Envision plate reader using
The data obtained with each compound was exported into a suitable software package (such as Origin) to perform curve fitting analysis.

[3] = biological target: T3, Wild-type EGFR (Homo sapiens, UniProt P00533); test: Wild-type EGFR cellular phosphorylation assay; details: LoVo human colon cells; endogenous p-EGFR in cell lysates by ELISA; 2 h with compound, then stimulated 100 ng/ml for 10 minutes; read-out: Assay 3 (IC50)
T3 construct: Assays to measure cellular phosphorylation of endogenous p-EGFR in cell lysates; endogenous in cells; host or cells: LoVo (human colon cell line)
Protocol: Assay 3: Wild-Type EGFR Cellular Phosphorylation Assay
The human colon cell line LoVo were obtained from the American type Culture Collection. […] Cells were grown in a humidified incubator at 37° C. with 5% CO2. Assays to measure cellular phosphorylation of endogenous p-EGFR in cell lysates were carried out according to the protocol described in the R&D Systems DuoSet IC Human Phospho-EGF R ELISA (R&D Systems catalogue number #DYC1095). 40 μL of cells were seeded (15000 cells/well) in growth medium in Corning black, clear-bottomed 384-well plates and incubated at 37° C. with 5% CO2 overnight. […] Plates were incubated for a further 2 h then stimulated with 100 ng/ml for 10 minutes and following aspiration of medium, 40 μL 1× lysis buffer was added to each well. Greiner black high bind 384-well plates were coated with capture antibody and then blocked with 3% BSA. […] Following aspiration and washing of the plates with PBS, 20 μL of detection antibody were added and incubated for 2 hours. […] The data obtained with each compound was exported into a suitable software package (such as Origin) to perform curve fitting analysis.

T1 sequence (P00533 with tags, fused parts or gaps DEL746-750): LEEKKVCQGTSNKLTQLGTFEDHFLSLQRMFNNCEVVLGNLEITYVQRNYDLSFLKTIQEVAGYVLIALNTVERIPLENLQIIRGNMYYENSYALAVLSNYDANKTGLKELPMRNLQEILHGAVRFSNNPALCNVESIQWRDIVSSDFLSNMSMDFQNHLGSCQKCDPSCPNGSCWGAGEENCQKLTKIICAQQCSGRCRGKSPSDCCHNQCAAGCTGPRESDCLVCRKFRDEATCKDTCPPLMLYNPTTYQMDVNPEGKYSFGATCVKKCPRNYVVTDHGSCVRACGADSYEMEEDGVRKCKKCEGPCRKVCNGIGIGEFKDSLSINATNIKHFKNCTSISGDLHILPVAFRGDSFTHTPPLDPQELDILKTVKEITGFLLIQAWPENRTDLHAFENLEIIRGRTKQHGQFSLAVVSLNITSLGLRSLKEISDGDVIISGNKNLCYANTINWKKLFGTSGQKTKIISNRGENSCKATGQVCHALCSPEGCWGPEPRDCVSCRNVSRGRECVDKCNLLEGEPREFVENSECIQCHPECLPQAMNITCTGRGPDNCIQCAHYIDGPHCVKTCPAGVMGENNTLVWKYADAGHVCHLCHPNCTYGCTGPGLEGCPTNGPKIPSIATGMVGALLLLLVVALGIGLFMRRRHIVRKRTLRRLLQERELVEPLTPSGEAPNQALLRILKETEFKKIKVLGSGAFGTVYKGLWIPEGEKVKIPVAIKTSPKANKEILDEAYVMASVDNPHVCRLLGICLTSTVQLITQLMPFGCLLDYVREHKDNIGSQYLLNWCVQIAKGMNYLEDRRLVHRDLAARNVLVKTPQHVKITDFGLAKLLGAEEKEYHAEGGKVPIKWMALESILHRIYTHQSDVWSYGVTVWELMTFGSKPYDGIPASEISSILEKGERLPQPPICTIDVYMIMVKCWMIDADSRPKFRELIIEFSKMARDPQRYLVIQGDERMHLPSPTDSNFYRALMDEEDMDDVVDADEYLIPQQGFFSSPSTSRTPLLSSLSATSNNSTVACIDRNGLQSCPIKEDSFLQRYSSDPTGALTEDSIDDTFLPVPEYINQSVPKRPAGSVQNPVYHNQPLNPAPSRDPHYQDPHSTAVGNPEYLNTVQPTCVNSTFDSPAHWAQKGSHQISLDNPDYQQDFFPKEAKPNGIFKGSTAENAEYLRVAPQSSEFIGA
T2 sequence (P00533 25-1210 T790M/L858R): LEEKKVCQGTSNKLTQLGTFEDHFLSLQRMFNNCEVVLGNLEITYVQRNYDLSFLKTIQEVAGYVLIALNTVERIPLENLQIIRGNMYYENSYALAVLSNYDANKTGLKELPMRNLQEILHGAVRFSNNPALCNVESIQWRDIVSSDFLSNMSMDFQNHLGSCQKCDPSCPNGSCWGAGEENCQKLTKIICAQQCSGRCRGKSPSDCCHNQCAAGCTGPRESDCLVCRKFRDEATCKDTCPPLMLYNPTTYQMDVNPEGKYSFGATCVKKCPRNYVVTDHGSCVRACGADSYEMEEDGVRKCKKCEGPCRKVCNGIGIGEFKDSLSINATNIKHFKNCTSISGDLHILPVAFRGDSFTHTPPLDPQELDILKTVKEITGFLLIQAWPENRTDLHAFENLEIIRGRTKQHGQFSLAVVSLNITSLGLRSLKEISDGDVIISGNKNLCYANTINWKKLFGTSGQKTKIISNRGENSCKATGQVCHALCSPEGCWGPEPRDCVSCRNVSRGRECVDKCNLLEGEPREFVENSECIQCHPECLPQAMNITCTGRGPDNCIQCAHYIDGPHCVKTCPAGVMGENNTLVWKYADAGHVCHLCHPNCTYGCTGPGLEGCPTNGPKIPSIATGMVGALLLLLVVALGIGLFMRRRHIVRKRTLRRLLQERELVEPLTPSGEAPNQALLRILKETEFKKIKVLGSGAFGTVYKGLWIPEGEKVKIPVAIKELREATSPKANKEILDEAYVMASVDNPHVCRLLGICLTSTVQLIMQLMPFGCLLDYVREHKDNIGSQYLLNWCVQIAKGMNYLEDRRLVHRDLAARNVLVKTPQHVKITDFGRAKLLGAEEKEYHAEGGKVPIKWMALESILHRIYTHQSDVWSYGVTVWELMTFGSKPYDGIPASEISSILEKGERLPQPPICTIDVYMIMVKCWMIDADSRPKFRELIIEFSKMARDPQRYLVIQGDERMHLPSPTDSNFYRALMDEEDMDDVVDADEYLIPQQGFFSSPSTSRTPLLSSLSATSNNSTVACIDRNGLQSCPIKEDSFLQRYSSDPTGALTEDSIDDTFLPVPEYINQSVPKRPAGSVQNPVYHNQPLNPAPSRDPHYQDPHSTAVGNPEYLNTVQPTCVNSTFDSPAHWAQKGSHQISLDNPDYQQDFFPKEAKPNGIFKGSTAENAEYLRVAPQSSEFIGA
T3 sequence (P00533 25-1210): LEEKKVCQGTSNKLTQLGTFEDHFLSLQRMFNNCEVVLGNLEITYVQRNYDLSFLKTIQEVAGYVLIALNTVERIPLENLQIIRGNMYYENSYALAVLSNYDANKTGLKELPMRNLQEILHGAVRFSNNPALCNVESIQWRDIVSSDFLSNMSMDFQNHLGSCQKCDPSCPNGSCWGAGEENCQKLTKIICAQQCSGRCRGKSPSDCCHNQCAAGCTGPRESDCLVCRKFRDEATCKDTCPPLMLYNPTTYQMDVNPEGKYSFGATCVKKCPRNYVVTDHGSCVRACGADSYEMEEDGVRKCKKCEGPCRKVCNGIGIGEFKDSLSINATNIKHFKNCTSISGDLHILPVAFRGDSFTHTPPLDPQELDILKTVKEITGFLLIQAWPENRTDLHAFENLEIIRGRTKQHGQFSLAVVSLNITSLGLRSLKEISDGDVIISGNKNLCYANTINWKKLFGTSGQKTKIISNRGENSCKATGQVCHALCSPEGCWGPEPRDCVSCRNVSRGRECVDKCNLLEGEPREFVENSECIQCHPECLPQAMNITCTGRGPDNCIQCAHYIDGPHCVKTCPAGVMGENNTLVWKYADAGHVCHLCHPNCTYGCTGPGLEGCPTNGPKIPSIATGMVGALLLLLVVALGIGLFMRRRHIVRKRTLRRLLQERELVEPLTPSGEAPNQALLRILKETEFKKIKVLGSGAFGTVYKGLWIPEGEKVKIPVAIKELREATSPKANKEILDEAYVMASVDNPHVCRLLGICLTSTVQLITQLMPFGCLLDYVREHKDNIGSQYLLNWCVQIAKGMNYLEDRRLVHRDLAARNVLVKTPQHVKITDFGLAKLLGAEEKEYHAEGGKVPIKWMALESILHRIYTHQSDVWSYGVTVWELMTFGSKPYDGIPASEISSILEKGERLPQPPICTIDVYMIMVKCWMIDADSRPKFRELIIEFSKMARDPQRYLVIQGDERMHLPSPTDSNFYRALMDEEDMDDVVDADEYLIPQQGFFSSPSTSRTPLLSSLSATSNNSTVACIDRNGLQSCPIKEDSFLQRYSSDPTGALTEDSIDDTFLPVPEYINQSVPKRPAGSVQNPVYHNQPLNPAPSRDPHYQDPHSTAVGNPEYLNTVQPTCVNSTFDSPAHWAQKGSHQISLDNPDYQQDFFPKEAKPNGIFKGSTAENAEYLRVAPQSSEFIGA

SMILES | IC50 [1] | IC50 [2] | IC50 [3]
C=CC(=O)Nc1cc(Nc2ncc(C#N)c(-c3cn(C)c4ccccc34)n2)c(OC)cc1N1CCN(C)CC1 [Example 23, N-(5-{[5-Cyano-4-(1-methylindol-3-yl)pyrimidin-2-yl]amino}-4-methoxy-2-{4-methylpiperazin-1-yl}phenyl)prop-2-enamide] | 16.9 nM | 17.6 nM | 3020 nM
C=CC(=O)Nc1cc(Nc2ncc(Cl)c(-c3cnn4ccccc34)n2)c(OC)cc1N(C)CCN1CCN(C)CC1 [Example 32, N-(5-{[5-Chloro-4-pyrazolo[1,5-a]pyridin-3-ylpyrimidin-2-yl]amino}-4-methoxy-2-{methyl-[2-(4-methylpiperazin-1-yl)ethyl]amino}phenyl)prop-2-enamide] | 138 nM | 23.8 nM | 10500 nM
C=CC(=O)Nc1cc(Nc2ncc(Cl)c(-c3cnn4ccccc34)n2)c(OC)cc1N1CC2(CCCN2C)C1 [Example 8, N-{5-[(5-Chloro-4-pyrazolo[1,5-a]pyridin-3-ylpyrimidin-2-yl)amino]-4-methoxy-2-[5-methyl-2,5-diazaspiro[3.4]octan-2-yl]phenyl}prop-2-enamide] | 22.4 nM | 5.48 nM | 1170 nM
C=CC(=O)Nc1cc(Nc2ncc(Cl)c(-c3cn(C)c4ccccc34)n2)c(OC)cc1N1CC(N(C)C)C1 [Example 34, N-(5-{[5-Chloro-4-(1-methylindol-3-yl)pyrimidin-2-yl]amino}-2-{3-dimethylaminoazetidin-1-yl}-4-methoxyphenyl)prop-2-enamide] | 9.04 nM | 3.77 nM | 153 nM
C=CC(=O)Nc1cc(Nc2ncc(C#N)c(-c3cn(C)c4ccccc34)n2)c(OC)cc1N1CC[C@@H](N(C)C)C1 [Example 22, N-(5-{[5-Cyano-4-(1-methylindol-3-yl)pyrimidin-2-yl]amino}-2-{(3R)-3-dimethylaminopyrrolidin-1-yl}-4-methoxyphenyl)prop-2-enamide] | 2.14 nM | 1.52 nM | 73.4 nM
C=CC(=O)Nc1cc(Nc2ncc(C#N)c(-c3cn(C)c4ccccc34)n2)c(OC)cc1N(C)CCN(C)C [Example 29, N-(5-{[5-Cyano-4-(1-methylindol-3-yl)pyrimidin-2-yl]amino}-2-{2-dimethylaminoethyl-methylamino}-4-methoxyphenyl)prop-2-enamide] | 1.23 nM | 0.885 nM | 46.5 nM
C=CC(=O)Nc1cc(Nc2ncc(Cl)c(-c3cnn4ccccc34)n2)c(OC)cc1N(C)CCN(C)C [Example 6, N-{5-[(5-Chloro-4-pyrazolo[1,5-a]pyridin-3-ylpyrimidin-2-yl)amino]-2-[2-dimethylaminoethyl-methylamino]-4-methoxyphenyl}prop-2-enamide] | 2.18 nM | 0.669 nM | 196 nM
C=CC(=O)Nc1cc(Nc2nccc(-c3cnn4ccccc34)n2)c(OC)cc1N1CCN(C)CC1 [Example 16, N-[4-Methoxy-2-(4-methylpiperazin-1-yl)-5-[(4-pyrazolo[1,5-a]pyridin-3-ylpyrimidin-2-yl)amino]phenyl]prop-2-enamide] | 144 nM | 70.5 nM | > 18900 nM
C=CC(=O)Nc1cc(Nc2ncc(C)c(-c3cn(C)c4ccccc34)n2)c(OC)cc1N(C)CCN(C)C [Example 19, N-(2-{2-Dimethylaminoethyl-methylamino}-4-methoxy-5-{[5-methyl-4-(1-methylindol-3-yl)pyrimidin-2-yl]amino}phenyl)prop-2-enamide] | 2.15 nM | 1.46 nM | 70.8 nM
C=CC(=O)Nc1cc(Nc2ncc(Cl)c(-c3cnn4ccccc34)n2)c(OC)cc1N1CCN(C(=O)[C@H](C)N)CC1 [Example 11, (S)—N-{2-[4-(2-Aminopropanoyl)piperazin-1-yl]-5-[(5-chloro-4-pyrazolo[1,5-a]pyridin-3-ylpyrimidin-2-yl)amino]-4-methoxyphenyl}prop-2-enamide] | 28.5 nM | 18.7 nM | 1600 nM
C=CC(=O)Nc1cc(Nc2ncc(C)c(-c3cn(C)c4ccccc34)n2)c(OC)cc1N1CCN(C)CC1 [Example 18, N-(4-Methoxy-5-{[5-methyl-4-(1-methylindol-3-yl)pyrimidin-2-yl]amino}-2-{4-methylpiperazin-1-yl}phenyl)prop-2-enamide] | 66.4 nM | 31.4 nM | 2700 nM
C=CC(=O)Nc1cc(Nc2ncc(Cl)c(-c3c[nH]c4ccccc34)n2)c(OC)cc1N1CC[C@@H](N(C)C)C1 [Example 24, N-(5-{[5-Chloro-4-(1H-indol-3-yl)pyrimidin-2-yl]amino}-2-{(3R)-3-dimethylaminopyrrolidin-1-yl}-4-methoxyphenyl)prop-2-enamide] | 1.33 nM | 0.886 nM | 35.7 nM

Now from value to compound:

IC50 [1] | IC50 [2] | IC50 [3] | SMILES
12.4 nM | 14.8 nM | > 30000 nM | C=CC(=O)Nc1cc(Nc2ncc(C#N)c(-c3cnn4ccccc34)n2)c(OC)cc1N1CC(N(C)C)C1 [Example 40, N-{5-[(5-Cyano-4-pyrazolo[1,5-a]pyridin-3-ylpyrimidin-2-yl)amino]-2-[3-dimethylaminoazetidin-1-yl]-4-methoxyphenyl}prop-2-enamide]
3.22 nM | 2.8 nM | 183 nM | C=CC(=O)Nc1cc(Nc2nccc(-c3cnn4ccccc34)n2)c(OC)cc1N(C)CCN(C)C [Example 54, N-{2-[2-Dimethylaminoethyl-methylamino]-4-methoxy-5-[(4-pyrazolo[1,5-a]pyridin-3-ylpyrimidin-2-yl)amino]phenyl}prop-2-enamide]
8.57 nM | 6.77 nM | 262 nM | C=CC(=O)Nc1cc(Nc2ncc(C)c(-c3cn(C)c4ccccc34)n2)c(OC)cc1N1CC(N(C)C)C1 [Example 35, N-(2-{3-Dimethylaminoazetidin-1-yl}-4-methoxy-5-{[5-methyl-4-(1-methylindol-3-yl)pyrimidin-2-yl]amino}phenyl)prop-2-enamide]
43.3 nM | 32.7 nM | 1050 nM | C=CC(=O)Nc1cc(Nc2nccc(-c3cn(C)c4ccccc34)n2)c(OC)cc1N1CC(N(C)C)C1 [Example 36, N-(2-{3-Dimethylaminoazetidin-1-yl}-4-methoxy-5-{[4-(1-methylindol-3-yl)pyrimidin-2-yl]amino}phenyl)prop-2-enamide]
6.45 nM | 14.5 nM | 89.3 nM | C=CC(=O)Nc1cc(Nc2nccc(-c3c[nH]c4ccccc34)n2)c(OC)cc1N1CC[C@@H](N(C)C)C1 [Example 57, N-(2-{(3R)-3-Dimethylaminopyrrolidin-1-yl}-5-{[4-(1H-indol-3-yl)pyrimidin-2-yl]amino}-4-methoxyphenyl)prop-2-enamide]
2.11 nM | 1.81 nM | 48.6 nM | C=CC(=O)Nc1cc(Nc2ncc(Cl)c(-c3c[nH]c4ccccc34)n2)c(OC)cc1N1CC(N(C)C)C1 [Example 37, N-(5-{[5-Chloro-4-(1H-indol-3-yl)pyrimidin-2-yl]amino}-2-{3-dimethylaminoazetidin-1-yl}-4-methoxyphenyl)prop-2-enamide]
